Laboratory results: paper PMC5458211, “Mitochondrial VDAC1-based peptides: Attacking oncogenic properties in glioblastoma” (Oncotarget, 2017)

Legend:
[1] = system: mice bearing U-87MG intracranial xenografts; assay: Survival (Kaplan-Meier) in U-87MG intracranial xenograft; type: in vivo, human U-87MG in nude mice; conditions: 10 mg/kg i.v., treatment ended day 46 post-inoculation
Procedure: B. U-87MG cells (2×10^5) were incubated for 12 h with the indicated concentrations of DMSO, Retro-Tf-D-LP4 peptide (Pep), or Retro-Tf-D-LP4 encapsulated in PLGA nanoparticles (PLGA-Pep). Samples of Retro-Tf-D-LP4 encapsulated in PLGA nanoparticles were centrifuged (15000g, 5 min) to separate the supernatant (Sup), containing free peptide, and the pellet, containing encapsulated Retro-Tf-D-LP4 peptide. Cell death was analyzed by PI staining and FACS analysis. C. Graphical representation of the orthotopic animal experiment. D. MRI imaging of brains 29 days post-intravenal treatment start with DMSO (1.05%), Retro-Tf-D-LP4 (10 mg/kg) encapsulated in PLGA nanoparticles or Tf-D-Retro-LP4 peptide (10 mg/Kg), as described in Materials and Methods available online in Supplemental information. E. Calculated tumor volumes after 20 (dark grey bars) and 29 (light grey bars) days post-treatment start. Results = mean ± SE (n = 6) (* p<0.05, *** p<0.001). F. Kaplan-Meier survival curves showing statistically significant differences in survival curves between the PBS/DMSO and Retro-Tf-D-LP4 treated mice. […]
For the intracranial-orthotopic xenograft mouse model, U-87MG cells (8×10^4) were engrafted into a nude mouse brain using a stereotactic device. […] Tumor volume was analyzed using VivoQuant 2.10 software.

[2] = system: apoptosis-related proteins; assay: Expression of apoptosis-related proteins in treated tumors (IHC, immunoblot); type: in vivo, human U-87MG in nude mice; conditions: treated tumors vs PBS/DMSO
Excerpt: Red color indicates PI nuclear staining and green color TUNEL staining. B. Representative sections from PBS/DMSO- and peptide-TTs IHC stained for p53, Cyto c, AIF, Caspase 3 and Smac/Diablo and then hematoxylin-stained and visualized by microscopy. C. Tissue lysates obtained from controls and several Tf-D-LP4-TTs were immunoblotted for p53, Caspase 8, Cyto c, Smac/Diablo, Caspase 3 and Bcl-2. D. Quantitative analysis of immunoblots is shown (n=2-4).
Formalin-fixed, paraffin-embedded sections of control and peptide-TTs were hematoxylin-eosin stained, probed with appropriate antibodies via IHC staining or immunoblotting of cells and tissue extracts. […]
HBSS solution. Cells or tumor tissue were lysed using lysis buffer (50 mM Tris-HCl, pH 7.5, 150 mM NaCl, 1
Xenograft and intracranial-orthotopic mouse mM EDTA, 1.5 mM MgCl2, 10% glycerol, 1% Triton models X-100, supplemented with a protease inhibitor cocktail
(Calbiochem, UK). Cell lysates were then centrifuged at U-87MG glioblastoma cells (3 x106) were inoculated 600xg (10 min at 4°C) and samples (10-40 μg of protein) s.c. into the hind leg ﬂanks of athymic eight-week old were subjected to SDS-PAGE and immunoblotting male nude mice (Envigo). Thirteen days post-inoculation, using various primary antibodies (sources and dilutions tumor volume was measured and calculated (100-130 as detailed in supplementary Table 2), followed by mm3) and mice were randomized into three groups (5 the appropriate HRP-conjugated secondary antibodies mice/group). Each treatment substance was injected into (i.e., anti-mouse, anti-rabbit or anti-goat). Blots the established s,c. tumors using PBS containing 0.26% were developed using enhanced chemiluminescence DMSO or peptide in PBS, 0.26% DMSO/20 μM). The (Biological Industries). Band intensities were analyzed xenografts were injected 20 µl per tumor (2 points) every by densitometry using Multi Gauge software (Fujifilm) two days. Beginning on the day of inoculation, mouse and the values were normalized to the intensities of the weight and tumor volume were monitored twice a week appropriate β-actin signal that served as a loading control. for a period of 23 days using a digital caliper. At the end of the experiments, the mice were sacrificed, tumors were IHC of tumor tissue sections excised and ex vivo weight was determined. Half of each tumor was either fixed in 4% buffered formaldehyde, IHC staining was performed on 5 μm-thick paraffin-embedded and processed for IHC or frozen in formalin-fixed and paraffin-embedded tumor tissue liquid nitrogen for later immunoblot analysis. sections. The sections were deparaffinized by placing To generate an intracranial-orthotopic mouse model, the slides at 60°C for 1 h and using xylene. […]
(Stoelting, Wood Dale, IL). A middle incision was made c, cytochrome c oxidase subunit IVc, GAPDH, Glut1, on the skull and a burr hole was introduced 0.5 mm HK-II, Klf4, LDH, Nestin, NGFR, P53, SMAC/Diablo, anterior to the bregma and 2.5 mm lateral to the midline Sox2, S100b, VDAC1) was performed in 0.01 M citrate using a drill (Stoelting). A 31-gauge needle loaded with buffer (pH 6.0). For CD31, HK-I and Ki-67, antigen 10 µL PBS was used to deliver tumor cells. The needle retrieval was performed in 10 mM Tris-EDTA (pH 9) and tip was inserted into the brain 3 mm deep, relative to the 0.5 M Tris (pH 10), for 30 minutes each at 95-98°C. After skull surface, and maintained at this depth for 2 minutes washing sections in PBS containing 0.1% Triton-X100 before injection of tumor cells. Under sterile conditions, (pH 7.4), non-specific antibody binding was reduced by a 3 µL solution containing U-87MG (8×104) cells was incubating the sections in 10% normal goat serum for 2 injected into the brain parenchyma over a period of […]. After decanting excess serum, sections were incubated
(1 picture or pasted object on this page, not shown here)

For `CC[C@H](C)[C@H](NC(=O)[C@H](Cc1ccc(O)cc1)NC(=O)[C@@H]1CCCN1C(=O)[C@H](CCCNC(=N)N)NC(=O)[C@H](Cc1c[nH]cn1)NC(=O)[C@H](CO)NC(=O)[C@H](Cc1c[nH]c2ccccc12)NC(=O)[C@@H](NC(=O)[C@H](Cc1c[nH]c2ccccc12)NC(=O)[C@H](CCC(=O)O)NC(=O)[C@@H](CCCCN)NC(=O)[C@@H](CCCCN)NC(=O)[C@@H](CC(C)C)NC(=O)[C@@H](CCC(=O)O)NC(=O)[C@H](NC(=O)[C@@H](C)NC(=O)[C@H](NC(=O)[C@@H](CC(N)=O)NC(=O)[C@@H](CC(C)C)NC(=O)[C@@H](C)NC(=O)[C@@H](Cc1c[nH]c2ccccc12)NC(=O)[C@H](NC(=O)[C@@H](C)NC(=O)CNC(=O)[C@@H](CC(N)=O)NC(=O)[C@@H](CO)NC(=O)[C@@H](CC(N)=O)NC(=O)[C@H](CCCCN)NC(=O)[C@H](Cc1c[nH]c2ccccc12)NC(=O)[C@@H](NC(=O)[C@H](Cc1c[nH]c2ccccc12)NC(=O)[C@@H](N)CCCCN)[C@@H](C)O)[C@H](C)O)C(C)C)[C@H](C)O)[C@@H](C)O)C(=O)N[C@@H](C)C(=O)N[C@@H](Cc1c[nH]cn1)C(=O)O` [Retro-Tf-D-LP4], the “prolongation of survival relative to untreated mice” value [1] was “over 60 days” and the “mice with prolonged survival” value ([1]; followed another 46 days, untreated all died by day 32) was 40%.

With `CC[C@H](C)[C@H](NC(=O)[C@H](C)NC(=O)[C@@H](N)Cc1c[nH]cn1)C(=O)N[C@@H](Cc1ccc(O)cc1)C(=O)N1CCC[C@H]1C(=O)N[C@@H](CCCNC(=N)N)C(=O)N[C@@H](Cc1c[nH]cn1)C(=O)N[C@@H](CO)C(=O)N[C@@H](Cc1c[nH]c2ccccc12)C(=O)N[C@H](C(=O)N[C@@H](Cc1c[nH]c2ccccc12)C(=O)N[C@@H](CCC(=O)O)C(=O)N[C@H](CCCCN)C(=O)N[C@H](CCCCN)C(=O)N[C@H](CC(C)C)C(=O)N[C@H](CCC(=O)O)C(=O)N[C@@H](C(=O)N[C@H](C)C(=O)N[C@@H](C(=O)N[C@H](CC(N)=O)C(=O)N[C@H](CC(C)C)C(=O)N[C@H](C)C(=O)N[C@H](Cc1c[nH]c2ccccc12)C(=O)N[C@@H](C(=O)N[C@H](C)C(=O)NCC(=O)N[C@H](CC(N)=O)C(=O)N[C@H](CO)C(=O)N[C@H](CC(N)=O)C(=O)N[C@@H](CCCCN)C(=O)N[C@@H](Cc1c[nH]c2ccccc12)C(=O)N[C@H](C(=O)N[C@@H](Cc1c[nH]c2ccccc12)C(=O)N[C@@H](CCCCN)C(=O)O)[C@@H](C)O)[C@H](C)O)C(C)C)[C@H](C)O)[C@@H](C)O` [Tf-D-LP4] the Bcl-2 level [2] was “almost undetectable”, the “Caspase 3 expression increase” value [2] was > 5 fold and the “Caspase 8 expression increase” value [2] was “about 20 fold”. For the same compound, the “Cyto c expression increase” value [2] was “over 10 fold”, the SMAC/DIABLO expression [2] was “much higher” and the p53 expression increase [2] was “over 12 fold”.
